Broadly, the koff is the rate constant with which the complex falls apart. A lower koff goes with a long-lived complex.

Results on 51 substances are retold here after patent publication US11414454B2, “Compositions, methods, and systems for affinity-based protein identification and purification” (Auctus Biologies, Inc., priority 2017, dated 2022).

For this test, the system named is RPtag (large). The test can be described thus: Association/dissociation kinetics of RPtag (small) peptides with RPtag (large) by fluorescence anisotropy. The format is binding, Thermoanaerobacter tengcongensis. The settings on record: for koff: LS dissociation, unlabeled competitor peptide; for kon (M^−1 min^−1 ) (×10^7): S*-LS transition, calculated from measured koff and Kd. The protocol: Panel a depicts representative association rate kinetics traces varying native RPtag small. Rhodamine labeled RPtag small at the indicated concentration was incubated with unlabeled RPtag large and the association measured by fluorescence anisotropy. L-S complex concentration was calculated by the equation (r−rmin)/(rmax−rmin)*[S] where r is the measured anisotropy, rmin is the anisotropy in the absence of any RPtag large, rmax is the anisotropy measured in the presence of at saturating RPtag large, and [S] is the total concentration of RPtag small used in the experiment. […] Dashed cyan lines are simulations of the mechanism shown in f using the rate constants detailed herein. The concentrations in the simulations were multiplied by a correction factor of 0.925, which is well within the 90% purity specification of the purchased peptide.
LS complex was performed by incubating 1000 nM RPtag large with the indicated concentrations of rhodamine labeled RPtag small. At the start of the experiment, 0.1 mM unlabeled native RPtag small was added and fluorescence anisotropy monitored. Data processing was done as in panel a, except the red fits were to the single exponential decay equation y=y0+A*exp(−b*t). As expected, the initial dissociation rates were linear with respect to the LS complex.
Fitting to a line yields a rate constant (koff)=0.0091 min^−1 (FIG. 9 panel e). In good agreement, when the kinetics are fit with a first order rate law, a rate constant of 0.012±0.002 min^−1 (n=15) was observed. […] Panel e is a graph of the initial rates of the traces represented in d. Slope of the fit line is 0.0091 min^−1. Data are mean±SE (n=3).
The library of mutant RPtag(small) peptides, described above, was next analyzed to measure off rates (koff). The on rate was also calculated from measured koff and Kd (S*-LS transition), except instead of using unlabeled native peptide as the competitor, we used unlabeled Nd2,P5A,E18A (the tightest binding RPtag(small) peptide identified). […] However, there were notable exceptions. […] This indicates, without wishing to be limited, that P5 may constrain the structure of the peptide. The increased flexibility imparted to the peptide by the P5A mutation may decrease the energy barrier required for binding/unbinding.

Chain of RPtag (large) (as listed by the source): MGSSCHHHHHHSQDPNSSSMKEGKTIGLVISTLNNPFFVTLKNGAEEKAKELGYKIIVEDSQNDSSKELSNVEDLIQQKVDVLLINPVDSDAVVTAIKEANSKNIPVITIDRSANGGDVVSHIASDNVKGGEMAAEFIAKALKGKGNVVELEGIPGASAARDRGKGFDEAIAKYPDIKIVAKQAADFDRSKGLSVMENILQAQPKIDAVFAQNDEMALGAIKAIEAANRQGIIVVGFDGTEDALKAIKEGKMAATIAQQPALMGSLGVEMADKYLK

On to “KIANFIPAELKLITKANAA [Nd2, p5a, e18a, v20a, q21a]”, for which the “koff” value was found to be 0.000217 ± 1.7e-05 s⁻¹ and the “kon (M^−1 min^−1 ) (×10^7)” value was 20 ± 1 ×10^7 M^−1 min^−1. The like results for “RIANFIPAELKLITKANVQ [Nd2, k3r, p5a, e18a]” were, in that order, 0.000217 ± 1.7e-05 s⁻¹ and 3.4 ± 0.1 ×10^7 M^−1 min^−1.

Consider ELKLIT [Nd10, Cd5], for which the off-rate (koff) was >0.033 s⁻¹.

Regarding GEKIPAFIPAELKLITKENVQ [n6a], the “koff” value is 2.5e-05 ± 5e-06 s⁻¹ and the “kon (M^−1 min^−1 ) (×10^7)” value was 0.45 ± 0.09 ×10^7 M^−1 min^−1. As for EKIPNFIPAELKLITKENVQ [Nd1], the “koff” value stood at 0.000147 ± 1.7e-06 s⁻¹ and the “kon (M^−1 min^−1 ) (×10^7)” value is given as 3.4 ± 0.1 ×10^7 M^−1 min^−1. GEKIANFIPAELKLITKENVQ [p5a]: the “koff” value is 0.0004 ± 3.3e-05 s⁻¹. As to GEKIPNFIPAALKLITKENVQ [e11a], the off-rate (koff) stood at 0.000112 ± 8.3e-06 s⁻¹ and the “kon (M^−1 min^−1 ) (×10^7)” value is 0.46 ± 0.06 ×10^7 M^−1 min^−1. With GEKIPNAIPAELKLITKENVQ [f7a], the dissociation rate constant (koff) was determined as 0.00105 ± 5e-05 s⁻¹ and the “kon (M^−1 min^−1 ) (×10^7)” value is recorded as 3.1 ± 0.1 ×10^7 M^−1 min^−1. Turning to KIPNFIPAELKLITKA [Nd2, Cd3, e18a], the “koff” value amounted to 0.000883 ± 3.3e-05 s⁻¹ and the “kon (M^−1 min^−1 ) (×10^7)” value was 40 ± 2 ×10^7 M^−1 min^−1. In the case of GEKIPNFIAAELKLITKENVQ [p9a], the dissociation rate constant (koff) was found to be 4e-05 ± 6.7e-06 s⁻¹ and the “kon (M^−1 min^−1 ) (×10^7)” value is 1.4 ± 0.2 ×10^7 M^−1 min^−1. For FIPAELKLITKE [Nd6, Cd3], the “koff” value was >0.033 s⁻¹. GEAIPNFIPAELKLITKENVQ [k3a]: the off-rate (koff) came to 8.83e-05 ± 1.2e-05 s⁻¹ and the “kon (M^−1 min^−1 ) (×10^7)” value is reported as 1.1 ± 0.1 ×10^7 M^−1 min^−1. For the substance GEKIPNFAPAELKLITKENVQ [i8a], the “koff” value was 0.0015 ± 0.00015 s⁻¹ and the “kon (M^−1 min^−1 ) (×10^7)” value is 8.6 ± 0.9 ×10^7 M^−1 min^−1. The like results for ELKLITKENVQ [Nd10] were, in that order, 0.00417 ± 0.00067 s⁻¹ and 4.3 ± 0.7 ×10^7 M^−1 min^−1.

As for PAELKLITKA [Nd8, Cd3, e18a], the “koff” value was >0.033 s⁻¹.

With GEKIPNFIPAELKL [Cd7], the off-rate (koff) was >0.033 s⁻¹.

In the case of PAELKLITKE [Nd8, Cd3], the “koff” value was >0.033 s⁻¹.

Take GEKAPNFIPAELKLITKENVQ [i4a]: the dissociation rate constant (koff) was 0.0001 ± 3.3e-06 s⁻¹.

For GEKIPNFIPAELKLI [Cd6], the “koff” value is >0.033 s⁻¹. On to FIPAELKLITKENVQ [Nd6], for which the dissociation rate constant (koff) is 0.00108 ± 5e-05 s⁻¹ and the “kon (M^−1 min^−1 ) (×10^7)” value is recorded as 12 ± 1 ×10^7 M^−1 min^−1.

With KIANFIPAELKLITKA [Nd2, Cd3, p5a, e18a], the “koff” value is 0.003 ± 0.00017 s⁻¹ and the “kon (M^−1 min^−1 ) (×10^7)” value is given as 33 ± 2 ×10^7 M^−1 min^−1.

For the substance GEKIPNFIPAELKLATKENVQ [i15a], the off-rate constant (koff) came to 0.0183 ± 0.005 s⁻¹ and the “kon (M^−1 min^−1 ) (×10^7)” value is recorded as 25 ± 6 ×10^7 M^−1 min^−1. Take LITKENVQ [Nd13]: the “koff” value is >0.033 s⁻¹. The same measure, in the same setting: with ELKLITKE [Nd10, Cd3] the figure was >0.033 s⁻¹. As for IANFIPAELKLITKANVQ [Nd3, p5a, e18a], the dissociation rate constant (koff) amounted to 0.000967 ± 3.3e-05 s⁻¹ and the “kon (M^−1 min^−1 ) (×10^7)” value is listed as 9.2 ± 0.4 ×10^7 M^−1 min^−1.

For the substance NFIPAELKLITKENVQ [Nd5], the “koff” value is 0.000933 ± 1.7e-05 s⁻¹ and the “kon (M^−1 min^−1 ) (×10^7)” value was 9.6 ± 0.1 ×10^7 M^−1 min^−1. With GEKIPNFIPAELKLITKEN [Cd2], the “kon (M^−1 min^−1 ) (×10^7)” value is given as 9.8 ± 0.3 ×10^7 M^−1 min^−1. As to KLITKENVQ [Nd12], the “koff” value is >0.033 s⁻¹. In the case of GEKIPNFIPAELKLIAKENVQ [t16a], the dissociation rate constant (koff) came out at 0.00148 ± 5e-05 s⁻¹ and the “kon (M^−1 min^−1 ) (×10^7)” value is given as 7.5 ± 0.3 ×10^7 M^−1 min^−1. KIANFIPAELKLITKE [Nd2, Cd3, p5a]: the “kon (M^−1 min^−1 ) (×10^7)” value was 26 ± 1 ×10^7 M^−1 min^−1. With GEKIPNFIPAELKAITKENVQ [l14a], the off-rate constant (koff) is >0.033 s⁻¹. As to KIANFIPAELKLITK [Nd2, Cd4, p5a], the off-rate (koff) was 0.003 ± 0.00017 s⁻¹ and the “kon (M^−1 min^−1 ) (×10^7)” value is on record as 22 ± 1 ×10^7 M^−1 min^−1. For “KIPNFIPAELKLITKANAA [Nd2, e18a, v20a, q21a]” the same measures were 0.000383 ± 1.7e-05 s⁻¹ and 3.6 ± 0.3 ×10^7 M^−1 min^−1. On to FIPAELKLITKA [Nd6, Cd3, e18a], for which the “koff” value was >0.033 s⁻¹. Take KIPNFIPAELKLITKE [Nd2, Cd3]: the “koff” value was 0.000767 ± 3.3e-05 s⁻¹ and the “kon (M^−1 min^−1 ) (×10^7)” value is recorded as 8.2 ± 0.3 ×10^7 M^−1 min^−1. As to ELKLITKA [Nd10, Cd3, e18a], the “koff” value is >0.033 s⁻¹. AELKLITKENVQ [Nd9]: the off-rate constant (koff) was 0.00667 ± 0.00067 s⁻¹ and the “kon (M^−1 min^−1 ) (×10^7)” value is 8.2 ± 0.9 ×10^7 M^−1 min^−1. For GEKIPNFIPAEAKLITKENVQ [l12a] the same measures were 0.00333 ± 0.001 s⁻¹ and 4.3 ± 1.2 ×10^7 M^−1 min^−1. As for PAELKLITKENVQ [Nd8], the off-rate constant (koff) was 0.000917 ± 3.3e-05 s⁻¹ and the “kon (M^−1 min^−1 ) (×10^7)” value is reported as 9.3 ± 0.3 ×10^7 M^−1 min^−1.

Consider LKLITKENVQ [Nd11], for which the off-rate constant (koff) came out at 0.02 ± 0.01 s⁻¹ and the “kon (M^−1 min^−1 ) (×10^7)” value is 7.1 ± 3.8 ×10^7 M^−1 min^−1.

Consider IPNFIPAELKLITKENVQ [Nd3], for which the “koff” value came to 0.0002 ± 1.7e-05 s⁻¹ and the “kon (M^−1 min^−1 ) (×10^7)” value is recorded as 8.8 ± 0.3 ×10^7 M^−1 min^−1. For GEKIPNFIPAELKLITK [Cd4] the same measures were 0.00367 ± 0.00033 s⁻¹ and 22 ± 2 ×10^7 M^−1 min^−1. On to AIANFIPAELKLITKENVQ [Nd2, k3a, p5a], for which the “koff” value was found to be 0.00015 ± 6.7e-06 s⁻¹.

In the case of IPAELKLITKENVQ [Nd7], the “koff” value stood at 0.0007 ± 0.000167 s⁻¹ and the “kon (M^−1 min^−1 ) (×10^7)” value was 1.8 ± 0.4 ×10^7 M^−1 min^−1. The like results for KIPNFIPAELKLITKANVQ [Nd2, e18a] were, in that order, 0.000138 ± 1.67e-05 s⁻¹ and 6.5 ± 0.7 ×10^7 M^−1 min^−1. For PNFIPAELKLITKENVQ [Nd4] the same measures were 0.000467 ± 1.7e-05 s⁻¹ and 9.4 ± 0.4 ×10^7 M^−1 min^−1. GEKIPNFIPAELKLITKE [Cd3]: the “koff” value was 0.002 ± 0.00033 s⁻¹. Consider KIPNFIPAELKLITK [Nd2, Cd4], for which the off-rate (koff) stood at 0.00132 ± 0.0001 s⁻¹ and the “kon (M^−1 min^−1 ) (×10^7)” value is given as 20 ± 2 ×10^7 M^−1 min^−1. With KIPNFIPAELKLITKENVQ [Nd2], the “koff” value is 5.83e-05 ± 1.3e-05 s⁻¹ and the “kon (M^−1 min^−1 ) (×10^7)” value is on record as 5.3 ± 1.3 ×10^7 M^−1 min^−1. For the substance GEKIPNFIPAELKLIT [Cd5], the off-rate constant (koff) is 0.0065 ± 0.00383 s⁻¹ and the “kon (M^−1 min^−1 ) (×10^7)” value is on record as 11 ± 7 ×10^7 M^−1 min^−1. For GEKIPNFIPAELKLITAENVQ [k17a] the same measures were 9.5e-05 ± 3.3e-06 s⁻¹ and 1.0 ± 0.1 ×10^7 M^−1 min^−1.
